# Measurements reported in PubChem BioAssay (NCI).
#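 Protocol summary: plate cells (96-well), add compound at 5 concentrations, incubate 48 h, interpolate endpoints linearly. GI50 marks 50% less growth. TGI is the concentration that stops growth completely.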
# Legend:
# Test in all cases: NCI tumour cell line growth inhibition, 48 h
# UACC-62 melanoma = test system: UACC-62 melanoma
# COLO 205 colon = test system: COLO 205 colon
# A549 NSCLC = test system: A549 NSCLC
# A498 renal = test system: A498 renal
# HCT-15 colon = test system: HCT-15 colon
# HL-60(TB) leukemia = test system: HL-60(TB) leukemia
# 786-0 renal = test system: 786-0 renal
# SK-OV-3 ovarian = test system: SK-OV-3 ovarian
# HCC-2998 colon = test system: HCC-2998 colon
# SN12C renal = test system: SN12C renal
# ACHN renal = test system: ACHN renal
# MALME-3M melanoma = test system: MALME-3M melanoma
# M14 melanoma = test system: M14 melanoma
# TK-10 renal = test system: TK-10 renal
# K-562 leukemia = test system: K-562 leukemia
# SW-620 colon = test system: SW-620 colon
# SK-MEL-5 melanoma = test system: SK-MEL-5 melanoma
# UO-31 renal = test system: UO-31 renal
# DU-145 prostate = test system: DU-145 prostate
# U251 CNS = test system: U251 CNS
# MDA-MB-435 = test system: MDA-MB-435
# SK-MEL-28 melanoma = test system: SK-MEL-28 melanoma
# OVCAR-5 ovarian = test system: OVCAR-5 ovarian
# NCI/ADR-RES ovarian = test system: NCI/ADR-RES ovarian
# MDA-MB-231 breast = test system: MDA-MB-231 breast
# MOLT-4 leukemia = test system: MOLT-4 leukemia
# HT29 colon = test system: HT29 colon
# NCI-H226 lung = test system: NCI-H226 lung
# SF-268 CNS = test system: SF-268 CNS
# SK-MEL-2 melanoma = test system: SK-MEL-2 melanoma
# SR leukemia = test system: SR leukemia
# PC-3 prostate = test system: PC-3 prostate
# CAKI-1 renal = test system: CAKI-1 renal
# RXF 393 renal = test system: RXF 393 renal
# RPMI-8226 leukemia = test system: RPMI-8226 leukemia
# OVCAR-4 ovarian = test system: OVCAR-4 ovarian
# KM12 colon = test system: KM12 colon
# HOP-92 NSCLC = test system: HOP-92 NSCLC
# EKVX NSCLC = test system: EKVX NSCLC
# T-47D breast = test system: T-47D breast
# SF-295 CNS = test system: SF-295 CNS
# LOX IMVI melanoma = test system: LOX IMVI melanoma
# NCI-H460 lung = test system: NCI-H460 lung
# OVCAR-8 ovarian = test system: OVCAR-8 ovarian
# SNB-75 CNS = test system: SNB-75 CNS
# SF-539 CNS = test system: SF-539 CNS
# UACC-257 melanoma = test system: UACC-257 melanoma
# HCT-116 colon = test system: HCT-116 colon
# IGROV1 ovarian = test system: IGROV1 ovarian
# HOP-62 NSCLC = test system: HOP-62 NSCLC
# HS 578T breast = test system: HS 578T breast
# NCI-H23 lung = test system: NCI-H23 lung
# SNB-19 CNS = test system: SNB-19 CNS
# NCI-H522 lung = test system: NCI-H522 lung
# CCRF-CEM leukemia = test system: CCRF-CEM leukemia
# MCF7 breast = test system: MCF7 breast
structure (smiles),measurement,setting,value
C=CCn1c(SCC(=O)Nc2ccc(C(=O)/C=C/c3cc(OC)c(OC)c(OC)c3)cc2)nnc1-c1c[nH]c2ccccc12,GI50,UACC-62 melanoma,2550 nM
same,TGI,UACC-62 melanoma,10.4 µM
same,GI50,COLO 205 colon,1870 nM
same,TGI,COLO 205 colon,4.07 µM
same,GI50,A549 NSCLC,3.04 µM
same,TGI,A549 NSCLC,12.3 µM
same,GI50,A498 renal,1500 nM
same,TGI,A498 renal,2920 nM
same,GI50,HCT-15 colon,2080 nM
same,TGI,HCT-15 colon,11.1 µM
same,GI50,HL-60(TB) leukemia,2180 nM
same,TGI,HL-60(TB) leukemia,8.04 µM
same,GI50,786-0 renal,1840 nM
same,TGI,786-0 renal,3.43 µM
same,GI50,SK-OV-3 ovarian,4.46 µM
same,TGI,SK-OV-3 ovarian,19.3 µM
same,GI50,HCC-2998 colon,1650 nM
same,TGI,HCC-2998 colon,3.09 µM
same,GI50,SN12C renal,3.71 µM
same,TGI,SN12C renal,> 100 µM
same,GI50,ACHN renal,1970 nM
same,TGI,ACHN renal,4.33 µM
same,GI50,MALME-3M melanoma,3.2 µM
same,TGI,MALME-3M melanoma,24.9 µM
same,GI50,M14 melanoma,2660 nM
same,TGI,M14 melanoma,8.39 µM
same,GI50,TK-10 renal,5.8 µM
same,TGI,TK-10 renal,34.3 µM
same,GI50,K-562 leukemia,991 nM
same,TGI,K-562 leukemia,> 100 µM
same,GI50,SW-620 colon,2080 nM
same,TGI,SW-620 colon,5.85 µM
same,GI50,SK-MEL-5 melanoma,3.52 µM
same,TGI,SK-MEL-5 melanoma,13.5 µM
same,GI50,UO-31 renal,1630 nM
same,TGI,UO-31 renal,4.77 µM
same,GI50,DU-145 prostate,3.19 µM
same,TGI,DU-145 prostate,10.8 µM
same,GI50,U251 CNS,1610 nM
same,TGI,U251 CNS,3.64 µM
same,GI50,MDA-MB-435,1820 nM
same,TGI,MDA-MB-435,4.76 µM
same,GI50,SK-MEL-28 melanoma,2320 nM
same,TGI,SK-MEL-28 melanoma,5.61 µM
same,GI50,OVCAR-5 ovarian,2060 nM
same,TGI,OVCAR-5 ovarian,4.34 µM
same,GI50,NCI/ADR-RES ovarian,> 100 µM
same,TGI,NCI/ADR-RES ovarian,> 100 µM
same,GI50,MDA-MB-231 breast,5.58 µM
same,TGI,MDA-MB-231 breast,> 100 µM
same,GI50,MOLT-4 leukemia,2700 nM
same,TGI,MOLT-4 leukemia,> 100 µM
same,GI50,HT29 colon,1700 nM
same,TGI,HT29 colon,3.3 µM
same,GI50,NCI-H226 lung,2560 nM
same,TGI,NCI-H226 lung,56.8 µM
same,GI50,SF-268 CNS,3.43 µM
same,TGI,SF-268 CNS,18.6 µM
same,GI50,SK-MEL-2 melanoma,2250 nM
same,TGI,SK-MEL-2 melanoma,6.38 µM
same,GI50,SR leukemia,522 nM
same,TGI,SR leukemia,> 100 µM
same,GI50,PC-3 prostate,3.09 µM
same,TGI,PC-3 prostate,> 100 µM
same,GI50,CAKI-1 renal,3.35 µM
same,TGI,CAKI-1 renal,> 100 µM
same,GI50,RXF 393 renal,1530 nM
same,TGI,RXF 393 renal,3.34 µM
same,GI50,RPMI-8226 leukemia,288 nM
same,TGI,RPMI-8226 leukemia,1260 nM
same,GI50,OVCAR-4 ovarian,2790 nM
same,TGI,OVCAR-4 ovarian,8.91 µM
same,GI50,KM12 colon,1480 nM
same,TGI,KM12 colon,2980 nM
same,GI50,HOP-92 NSCLC,4.24 µM
same,TGI,HOP-92 NSCLC,> 100 µM
same,GI50,EKVX NSCLC,3.69 µM
same,TGI,EKVX NSCLC,> 100 µM
same,GI50,T-47D breast,2420 nM
same,TGI,T-47D breast,> 100 µM
same,GI50,SF-295 CNS,3.14 µM
same,TGI,SF-295 CNS,11.6 µM
same,GI50,LOX IMVI melanoma,904 nM
same,TGI,LOX IMVI melanoma,2340 nM
same,GI50,NCI-H460 lung,3.1 µM
same,TGI,NCI-H460 lung,10.1 µM
same,GI50,OVCAR-8 ovarian,3.44 µM
same,TGI,OVCAR-8 ovarian,> 100 µM
same,GI50,SNB-75 CNS,3.5 µM
same,TGI,SNB-75 CNS,17.3 µM
same,GI50,SF-539 CNS,1810 nM
same,TGI,SF-539 CNS,3.64 µM
same,GI50,UACC-257 melanoma,3.5 µM
same,TGI,UACC-257 melanoma,19.8 µM
same,GI50,HCT-116 colon,376 nM
same,TGI,HCT-116 colon,1530 nM
same,GI50,IGROV1 ovarian,1600 nM
same,TGI,IGROV1 ovarian,4.06 µM
same,GI50,HOP-62 NSCLC,2060 nM
same,TGI,HOP-62 NSCLC,5.22 µM
same,GI50,HS 578T breast,4.35 µM
same,TGI,HS 578T breast,> 100 µM
same,GI50,NCI-H23 lung,1850 nM
same,TGI,NCI-H23 lung,4.16 µM
same,GI50,SNB-19 CNS,3000 nM
same,TGI,SNB-19 CNS,13.3 µM
same,GI50,NCI-H522 lung,2150 nM
same,TGI,NCI-H522 lung,4.99 µM
same,GI50,CCRF-CEM leukemia,2240 nM
same,TGI,CCRF-CEM leukemia,> 100 µM
same,GI50,MCF7 breast,361 nM
same,TGI,MCF7 breast,1860 nM
